Patent US7091211B2, “Cyclopentyl modulators of chemokine receptor activity” (Merck & Co., Inc., priority 2003, dated 2006)
Structures can show the parent of a compound that is named as a salt.

Each molecule was assayed against T1, CCR3 (Homo sapiens, UniProt P51677) (assay: Assay for determining CCR3 binding activity). Details: assay disclosed in U.S. Pat. No. 6,303,593 or 6,538,002.
T1 sequence (P51677 1-355): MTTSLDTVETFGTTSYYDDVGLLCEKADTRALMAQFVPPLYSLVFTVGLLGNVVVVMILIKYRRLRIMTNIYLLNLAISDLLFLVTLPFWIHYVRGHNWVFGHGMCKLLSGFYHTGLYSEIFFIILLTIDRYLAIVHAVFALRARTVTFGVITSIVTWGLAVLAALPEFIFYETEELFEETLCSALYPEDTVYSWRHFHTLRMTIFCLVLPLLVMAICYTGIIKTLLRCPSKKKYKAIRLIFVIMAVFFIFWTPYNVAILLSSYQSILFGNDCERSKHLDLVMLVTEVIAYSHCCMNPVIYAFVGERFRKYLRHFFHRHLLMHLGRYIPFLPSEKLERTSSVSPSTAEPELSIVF
From the text: Cell lines for expressing the receptor of interest include those naturally expressing the receptor, such as […] or THP-1, or a cell engineered to express a recombinant receptor, such as CHO, RBL-2H3, or HEK-293. For example, a CCR3 transfected AML14.3D10 cell line has been placed on restricted deposit with American Type Culture Collection as ATCC No. CRL-12079.
The CCR3 binding activity of representative compounds of the present invention can be determined via the assay disclosed in U.S. Pat. No. 6,303,593 or U.S. Pat. No. 6,538,002.

CCc1nn(CC)c2c1CCC21CCN(C[C@H]2C[C@H](N(C)[C@@H](C(=O)O)C(C)C)C[C@@H]2c2cccc(F)c2)CC1 [Example 1, N-Methyl-N-(1-(R)-3-(S)-((1,3-diethyl-4,5-dihydrospiro[cyclopentapyrazole-6(1H),4′-piperidin-1′-yl])methyl)-4-(S)-(3-fluorophenyl)cyclopent-1-yl)-(R)-valine trihydrochloride salt] was tested. Which IC50 did it give?
The IC50 was under 10 µM.

How did the IC50 turn out when CCc1c2c(nn1CC)C1(CC2)CCN(C[C@H]2C[C@H](N(C)[C@@H](C(=O)O)C(C)C)C[C@@H]2c2cccc(F)c2)CC1 [Example 2, N-Methyl-N-(1-(R)-3-(S)-((2,3-diethyl-4,5-dihydrospiro[cyclopentapyrazole-6(2H),4′-piperidin-1′-yl])methyl)-4-(S)-(3-fluorophenyl)cyclopent-1-yl)-(R)-valine trihydrochloride salt] was run?
The IC50 was under 10 µM.

CCc1nn(C)c2c1CCC21CCN(C[C@H]2C[C@H](N(C)[C@@H](C(=O)O)C(C)C)C[C@@H]2c2cccc(F)c2)CC1 [Example 3, N-Methyl-N-(1-(R)-3-(S)-((3-ethyl-1-methyl-4,5-dihydrospiro[cyclopentapyrazole-6(1H),4′-piperidin-1′-yl])methyl)4-(S)-(3-fluorophenyl)cyclopent-1-yl)-(R)-valine trihydrochloride salt] was tested. Which IC50 did it give?
The IC50 was under 10 µM.

Which IC50 does the source give for CCn1ncc2c1C1(CC2)CCN(C[C@H]2C[C@H](N(C)[C@@H](C(=O)O)C(C)C)C[C@@H]2c2cccc(F)c2)CC1 [Example 6, N-Methyl-N-(1-(R)-3-(S)-((1-ethyl-4,5-dihydrospiro[cyclopentapyrazole-6(1H),4′-piperidin-1′-yl])methyl)-4-(S)-(3-fluorophenyl)cyclopent-1-yl)-(R)-valine trihydrochloride salt] here?
Its IC50 is under 10 µM.

How did the IC50 turn out when CCc1onc2c1CCC21CCN(C[C@H]2C[C@H](N(C)[C@@H](C(=O)O)C(C)C)C[C@@H]2c2cccc(F)c2)CC1 [Example 12, N-Methyl-N-(1-(R)-3-(S)-((3-ethyl-4,5-dihydrospiro[6H-cyclopent[c]isoxazole-6,4′-piperidin-1′-yl])methyl)-4-(S)-(3-fluorophenyl)cyclopent-1-yl)-(R)-valine trihydrochloride salt] was run?
Its IC50 is under 10 µM.

CCn1cc2c(n1)CCC21CCN(C[C@H]2C[C@H](N(C)[C@@H](C(=O)O)C(C)C)C[C@@H]2c2cccc(F)c2)CC1 [Example 15, N-Methyl-N-(1-(R)-3-(S)-((2-ethyl-5,6 dihydrospiro[cyclopentapyrazole-4(2H),4′-piperidin-1′-yl])methyl)-4-(S)-(3-fluorophenyl)cyclopent-1-yl)-(R)-valine trihydrochloride salt] was tested. Which IC50 did it give?
Its IC50 is under 10 µM.

How did the IC50 turn out when CCc1nn(CC)c2c1C1(CC2)CCN(C[C@H]2C[C@H](N(C)[C@@H](C(=O)O)C(C)C)C[C@@H]2c2cccc(F)c2)CC1 [Example 16, N-Methyl-N-(1-(R)-3-(S)-((1,3-diethyl-5,6 dihydrospiro[cyclopentapyrazole-4(1H),4′-piperidin-1′-yl])methyl)-4-(S)-(3-fluorophenyl)cyclopent-1-yl)-(R)-valine trihydrochloride salt] was run?
The IC50 was under 10 µM.

For CCc1nn(CC)c2c1CCC21CCN(C[C@H]2C[C@H](N(CC)[C@@H](C(=O)O)C(C)C)C[C@@H]2c2cccc(F)c2)CC1 [Example 18, N-Ethyl-N-(1-(R)-3-(S)-((1,3-diethyl-4,5-dihydrospiro[cyclopentapyrazole-6(1H),4′-piperidin-1′-yl])methyl)-4-(S)-(3-fluorophenyl)cyclopent-1-yl)-(R)-valine trihydrochloride salt], which IC50 is on record?
The IC50 was under 10 µM.

Which IC50 does the source give for CCc1nn(CC)c2c1CCC21CCN(C[C@H]2C[C@H](N(C)[C@@H](C(=O)O)C(C)(C)C)C[C@@H]2c2cccc(F)c2)CC1 [Example 20, N-Methyl-N-(1-(R)-3-(S)-((1,3-diethyl-4,5-dihydrospiro[cyclopentapyrazole-6(1H),4′-piperidin-1′-yl])methyl)-4-(S)-(3-fluorophenyl)cyclopent-1-yl)-(R)-t-butylglycine trihydrochloride salt] here?
The IC50 was under 10 µM.

How did the IC50 turn out when CCc1nn(CC)c2c1CCC21CCN(C[C@H]2C[C@H](N(C)[C@@H](C(=O)O)C(C)C)C[C@@H]2c2ccc(F)c(F)c2)CC1 [Example 25, N-Methyl-N-(1-(R)-3-(S)-((1,3-diethyl-4,5-dihydrospiro[cyclopentapyrazole-6(1H),4′-piperidin-1′-yl])methyl)-4-(S)-(3,4-difluorophenyl)cyclopent-1-yl)-(R)-valine trihydrochloride salt] was run?
The IC50 was under 10 µM.

With CCc1nn(CC)c2c1CCC21CCN(C[C@H]2C[C@H]([C@H](NC(C)(C)CC)C(=O)O)C[C@@H]2c2cccc(F)c2)CC1 [Example 45, 2-(S)-(1-(R)-3-(S)-((1,3-Diethyl-4,5-dihydrospiro[cyclopentapyrazole-6(1H),4′-piperidin-1′-yl])methyl)-4-(S)-(3-fluorophenyl)cyclopent-1-yl)-2-(1,1-dimethylprop-1-ylamino)acetic acid trihydrochloride salt] as the molecule, how does the IC50 read?
The IC50 was under 10 µM.

CCc1nn(CC)c2c1CCC21CCN(C[C@H]2C[C@H]([C@@H](C(=O)O)N(C)C(C)(C)CC)C[C@@H]2c2cccc(F)c2)CC1 [Example 46, 2-(S)-(1-(R)-3-(S)-((1,3-Diethyl-4,5-dihydrospiro[cyclopentapyrazole-6(1H),4′-piperidin-1′-yl])methyl)-4-(S)-(3-fluorophenyl)cyclopent-1-yl)-2-((1,1-dimethylprop-1-yl)methylamino)acetic acid trihydrochloride salt] was tested. Which IC50 did it give?
Its IC50 is under 10 µM.
